# In publication PMC8949187, “Study of Structure–Activity Relationships of the Marine Alkaloid Fascaplysin and Its Derivatives as Potent Anticancer Agents” (Marine Drugs, 2022):
# Assays:
# LNCaP cells = experiment: MTT assay, LNCaP cells; assay type: cell-based, human; details: Homo sapiens, LNCaP; prostate cancer cells; 48 h of treatment; mean ± SD
# Method: (§1) The human prostate cancer cell lines PC-3, DU145, 22Rv1 and LNCaP, as well as human prostate non-cancer cell line PNT2 were purchased from ATCC (Manassas, VA, USA). HEK 293T (human embryonic kidney cells) and MRC-9 (human fibroblast cells) cell lines were purchased from ECACC (Salisbury, UK). […] Authentication of all cell lines used was recently performed by a commercial service (Multiplexion GmbH, Heidelberg, Germany).
# (§2) Cells were cultured as monolayers at 37 °C in a humidified atmosphere with 5% (v/v) CO2 in the correspondent culture medium: 10% FBS/RPMI medium (RPMI medium supplemented with Glutamax^TM-I (gibco® Life technologies^TM, Paisley, UK) containing 10% fetal bovine serum (FBS, gibco® Life technologies^TM) and 1% penicillin/streptomycin (Invitrogen)) for PNT2, LNCaP, 22Rv1, PC-3 and DU145 and cells; 10% FBS/DMEM medium (DMEM medium supplemented with Glutamax^TM-I (gibco® Life technologies^TM) containing 10% FBS and 1% penicillin/streptomycin (gibco® Life technologies^TM)) for MRC-9 and HEK 293 cells. Cells were continuously kept in culture for a maximum of 3 months, and were regularly checked for stable phenotype and mycoplasma infection.
# (§3) Effect of the drugs on cell viability in terms of metabolic activity was assessed by MTT assay, as previously reported. Cells were pre-incubated overnight in 96-well plates (6 × 10^3 cells/well in 100 μL/well) in the correspondent culture media. Then, the medium was replaced with fresh 10% FBS/RPMI medium containing the investigated compounds (100 μL/well), and cells were incubated for 48 h, unless otherwise stated. Next, 10 μL/well of (3-(4,5-dimethylthiazol-2-yl)-2,5-diphenyltetrazolium bromide) reagent (MTT, 5 mg/mL) was added. After 2–4 h of incubation, the media was aspirated and the plates were dried. Then, 50 μL/well of DMSO was added to each well and the cell viability was measured using an Infinite F200PRO reader (TECAN, Männedorf, Switzerland). Results were calculated using the GraphPad Prism software v.9.1.1 (GraphPad Software, San Diego, CA, USA) and are represented as IC50 of the compounds calculated using the cells treated with the solvent alone as a control.
# PNT2 cells = experiment: MTT assay, PNT2 cells; assay type: cell-based, human; details: Homo sapiens, PNT2; non-cancer cells; 48 h of treatment; mean ± SD
# Method: as §1, §2, §3
# [1] = tested on: non-cancer cell lines versus cancer cell lines; experiment: Selectivity index from MTT IC50s; assay type: cell-based, human; details: for Selectivity index, IC50 (non-prostate) / IC50 (prostate): mean IC50 MRC-9 and HEK-293 versus mean IC50 prostate cancer cell lines plus PNT2; for Selectivity index, IC50 (non-prostate) / IC50 (prostate) / Selectivity index, IC50 (non-cancer) / IC50 (cancer): MTT; for Selectivity index, IC50 (non-cancer) / IC50 (cancer): mean IC50 non-cancer cell lines versus mean IC50 cancer cell lines
# Method: as §3, with “Next, SAR analysis was performed to identify the structural elements that are beneficial for anticancer activity of the fascaplysin-related molecules. Considering the complex and heterogeneous nature of tumors even within the same patient, we used calculated mean IC50 values of each drug in all prostate cancer cells for further analysis (Figure 2A). To identify the drug candidates with the highest therapeutic potential, the selectivity index (SI) was calculated as mean IC50 in non-cancer cells versus mean IC50 in cancer cells (Figure 2B), or as a mean IC50 in non-cancer (MRC-9 and HEK293) cells versus mean IC50 in prostate cells (cancer PC-3, 22Rv1, DU145, LNCaP and non-cancer PNT2 cells) (Figure 2C). Finally, to estimate the effects on cellular metabolism, we compared the activity evaluated by using trypan blue assay versus MTT assay (Figure 2D). Effect” for “Effect”, “2-4” for “2–4”, “F200PRO” left out
# MRC-9 cells = experiment: MTT assay, MRC-9 cells; assay type: cell-based, human; details: Homo sapiens, MRC9; non-cancer cells; 48 h of treatment; mean ± SD
# Method: as §1, §2, §3
# DU145 cells = experiment: MTT assay, DU145 cells; assay type: cell-based, human; details: Homo sapiens, DU-145; prostate cancer cells; 48 h of treatment; mean ± SD
# Method: as §1, §2, §3
# [2] = tested on: prostate cancer cell lines (PC-3, 22Rv1, DU145 and LNCaP); experiment: MTT assay, mean over four prostate cancer cell lines; assay type: cell-based; details: Homo sapiens; mean of MTT IC50 in PC-3, 22Rv1, DU145 and LNCaP; from Table S1 values; read-out: mean IC50 in cancer cells
# Method: as §3, with “Next, SAR analysis was performed to identify the structural elements that are beneficial for anticancer activity of the fascaplysin-related molecules. Considering the complex and heterogeneous nature of tumors even within the same patient, we used calculated mean IC50 values of each drug in all prostate cancer cells for further analysis (Figure 2A). To identify the drug candidates with the highest therapeutic potential, the selectivity index (SI) was calculated as mean IC50 in non-cancer cells versus mean IC50 in cancer cells (Figure 2B), or as a mean IC50 in non-cancer (MRC-9 and HEK293) cells versus mean IC50 in prostate cells (cancer PC-3, 22Rv1, DU145, LNCaP and non-cancer PNT2 cells) (Figure 2C). Finally, to estimate the effects on cellular metabolism, we compared the activity evaluated by using trypan blue assay versus MTT assay (Figure 2D). Effect” for “Effect”, “2-4” for “2–4”, “F200PRO” left out
# 22Rv1 cells [3] = experiment: DNA fragmentation (apoptosis, sub-G1), flow cytometry with PI staining; assay type: cell-based, human; details: treated at IC50 (MTT assay) for 48 h, mean ± SD
# Method: (§4) The effects on cell cycle progression and DNA fragmentation were analyzed by flow cytometry using PI staining, as described before. Cells (2 × 10^5 cells/well) were pre-incubated overnight in 6-well plates and then treated with the investigated drugs in fresh culture media (2 mL/well) for 48 h. Cells were harvested by trypsinization, fixed in 70% EtOH, stained with PI solution and analyzed by FACS Calibur (BD Bioscience, San Jose, CA, USA). The results were quantified using BD Bioscience Cell Quest Pro v.5.2.1. software (BD Bioscience). The cells appearing as a sub-G1 population (containing fragmented DNA) were considered to be apoptotic.
# HEK-293 cells = experiment: MTT assay, HEK-293 cells; assay type: cell-based, human; details: Homo sapiens, HEK293; non-cancer cells; 48 h of treatment; mean ± SD
# Method: as §1, §2, §3
# 22Rv1 cells [4] = experiment: Trypan blue-based viability assay; assay type: cell-based, human; details: Homo sapiens, 48 h of treatment, mean ± SD, read-out: IC50, trypan blue staining assay
# Method: The effect of the drugs on cell viability in terms of cellular membrane integrity was evaluated by the trypan blue exclusion assay as described before. In brief, cells (0.2 × 10^6 cells/well) were seeded in 6-well plates and incubated overnight, and the media was replaced with fresh media (1 mL/well) containing drugs at indicated concentrations. After treatment for 48 h, the cells were harvested by trypsinization, stained with trypan blue and the viability was measured using an automatic Beckman Coulter Vi-CELL (Beckman Coulter, Krefeld, Germany). Trypan blue-positive cells were assumed to have damaged cellular membrane (i.e., dead), whereas trypan blue-negative cells were considered to have an intact cellular membrane (i.e., alive).
# 22Rv1 cells [5] = experiment: MTT assay, 22Rv1 cells; assay type: cell-based, human; details: Homo sapiens, 22Rv1; prostate cancer cells; 48 h of treatment; mean ± SD
# Method: as §1, §2, §3
# PC-3 cells = experiment: MTT assay, PC-3 cells; assay type: cell-based, human; details: Homo sapiens, PC-3; prostate cancer cells; 48 h of treatment; mean ± SD
# Method: as §1, §2, §3
# 22Rv1 cells [6] = experiment: Cell cycle progression, flow cytometry with PI staining; assay type: cell-based, human; details: treated at IC50 (MTT assay) for 48 h
# Method: as §4
# [7] = tested on: double-stranded calf thymus DNA; experiment: Thiazole orange displacement (DNA intercalation) assay; assay type: binding; details: 1 µM calf thymus DNA base pairs, 2 µM thiazole orange; 7 min at room temperature; mean ± SD
# Method: DNA intercalation activity of the compounds was calculated as an ability to displace thiazole orange (TO) from the double-stranded DNA. For this experiment, a mixture (100 µL) containing 1 µM of double-stranded calf thymus DNA (recalculated as a concentration of base pairs) and 2 µM of thiazole orange (TO) solved in water was prepared. Then, the investigated compounds were added up to final concentrations of 0.39–25 µM; DMSO concentration in the samples was <0.02%. Propidium iodide (PI, positive control) was added up to final concentrations of 0.039–2.5 uM. After 7 min of incubation at room temperature, TO fluorescence was monitored using a multimodal plate reader TECAN Spark (Tecan Group Ltd., Männedorf Switzerland) at the excitation λ = 480 nm; fluorescence was recorded at λ = 530 nm. The bandwidth was 10 nm. The concentration of the drug that caused a decrease in TO fluorescence by 50% (EC50) was determined by approximating the experimental data using a non-linear regression algorithm and calculated using the GraphPad Prism software v.9.1.1 (GraphPad Software, San Diego, CA, USA).
# TRKA = tested on: TRKA; parameters: method as in PMID 28961193; details: cited from earlier work
# tumor growth = tested on: tumor growth; parameters: method as in PMID 28961193, PMID 25561006; details: various in vivo models; cited from earlier work
# VEGFR2 = tested on: VEGFR2; parameters: method as in PMID 28961193; details: cited from earlier work
# VEGFR3 = tested on: VEGFR3; parameters: method as in PMID 28961193; details: cited from earlier work
Compound,IC50 (LNCaP cells) [µM],IC50 (PNT2 cells) [µM],"Selectivity index (SI), for Figure 2B,C ([1]; both SI definitions (Figure 2B,C))",IC50 (MRC-9 cells) [µM],IC50 (DU145 cells) [µM],IC50 [2] [µM],% of sub-G1 apoptotic cells (at IC50) (22Rv1 cells [3]) [%],IC50 (HEK-293 cells) [µM],IC50 (22Rv1 cells [4]) [µM],IC50 (22Rv1 cells [5]) [µM],IC50 (PC-3 cells) [µM],Cell cycle arrest (at IC50) (22Rv1 cells [6]),EC50 [7] [µM],"Selectivity index, IC50 (non-prostate) / IC50 (prostate) [1]","Selectivity index, IC50 (non-cancer) / IC50 (cancer) [1]",concentration inhibiting TRKA (TRKA),dose at which tumor growth is inhibited (tumor growth) [mg/kg],concentration inhibiting VEGFR2 (VEGFR2),concentration inhibiting VEGFR3 (VEGFR3)
"O=C1c2ccc(Br)cc2-[n+]2ccc3c([nH]c4cc(Br)ccc43)c21 [Compound 8, 3,10-dibromofascaplysin]",0.593 ± 0.091,3.49 ± 1.01,7–9,> 50,1.51 ± 0.056,2.52,3.83±0.442,0.54 ± 0.048,5.14 ± 0.22,0.69 ± 0.019,7.28 ± 0.48,No,4.38 ± 0.06,–,–,–,–,–,–
"O=C1c2ccccc2-[n+]2ccc3c([nH]c4ccc(Br)cc43)c21.[Cl-] [Compound 6, 12,13-dihydro-9-bromo-13-oxopyrido[1,2-a:3,4-b’]diindol-5-ium chloride]",1.41 ± 0.089,2.45 ± 0.95,–,15.5 ± 2.5,2.24 ± 0.18,1.88,32.38±1,2.54 ± 1.14,2.79 ± 0.223,1.07 ± 0.094,2.78 ± 0.37,No,> 25,4.54,3.65,–,–,–,–
"O=C1c2cc(Br)ccc2-[n+]2ccc3c([nH]c4c(Cl)cc(Cl)cc43)c21.[Cl-] [Compound 14, 12,13-dihydro-2-bromo-9,11-dichloro-13-oxopyrido[1,2-a:3,4-b’]diindol-5-ium chloride]",6.51 ± 2.32,2.75 ± 1.74,–,> 50,6.91 ± 0.65,5.72,23.6±1.2,2.61 ± 0.429,7.43 ± 0.85,4.15 ± 0.34,5.29 ± 0.132,No,–,5.14,3.23,–,–,–,–
"O=C1c2ccccc2-[n+]2ccc3c([nH]c4ccccc43)c21 [Compound 1, fascaplysin]",–,–,–,0.89 ± 0.046,–,0.55,11.43±0.843,–,0.335 ± 0.093,–,–,G1-phase arrest,0.53 ± 0.01,1.26,1.09,lower than 3 µM,1 to 5,lower than 3 µM,lower than 3 µM
"O=C1c2cc(Br)ccc2-[n+]2ccc3c([nH]c4ccc(Cl)cc43)c21.[Cl-] [Compound 12, 12,13-dihydro-2-bromo-9-chloro-13-oxopyrido[1,2-a:3,4-b’]diindol-5-ium chloride]",2.7 ± 0.173,3.33 ± 0.806,–,36.3 ± 9.51,2.08 ± 0.58,5.23,6.95±0.901,0.75 ± 0.065,1.64 ± 0.85,2.89 ± 0.89,13.2 ± 2.87,No,–,3.82,2.58,–,–,–,–
"O=C1c2ccc(Br)cc2-[n+]2ccc3c([nH]c4cccc(Br)c43)c21.[Cl-] [Compound 9, 12,13-dihydro-3,8-dibromo-13-oxopyrido[1,2-a:3,4-b’]diindol-5-ium chloride]",0.361 ± 0.085,0.369 ± 0.024,–,2.07 ± 0.47,0.334 ± 0.034,0.57,28.7±3.49,0.58 ± 0.099,0.259 ± 0.094,0.209 ± 0.072,1.39 ± 0.7,No,0.69 ± 0.02,2.48,1.75,–,–,–,–
